According to patent publication US6653306B1, “Epoxy-steroidal aldosterone antagonist and angiotensin II antagonist combination therapy” (G.D. Searle & Co., priority 1995, dated 2003):
pIC50: −log10 of the molar value. Where “and” joins values, the source holds several entries; their conditions need not be identical. Equal entries are not always repeated.

Assays:
[1] = target: angiotensin II AT1 receptor; experiment: Assay A: Angiotensin II binding activity (125I-AII displacement, rat uterine membrane preparation)
[2] = tested on: rabbit aortic rings; experiment: Assay B: In vitro vascular smooth muscle response for AII (antagonist activity, pA2); format: cell-based; settings: in vitro vascular smooth muscle response, two values per cell separated by / are separate determinations; for Kb: Oryctolagus cuniculus, read-out: Assay B pA2 (converted)
Protocol: Assay B: In Vitro Vascular Smooth Muscle-response for AII
The compounds of the invention were tested for antagonist activity in rabbit aortic rings. Male New Zealand white rabbits (2-2.5 kg) were sacrificed using an overdose of pentobarbital and exsanguinated via the carotid arteries. The thoracic aorta was removed, cleaned of adherent fat and connective tissue and then cut into 3-mm ring segments. The endothelium was removed from the rings by gently sliding a rolled-up piece of filter paper into the vessel lumen. The rings were then mounted in a water-jacketed tissue bath, maintained at 37° C., between moveable and fixed ends of a stainless steel wire with the moveable end attached to an FT03 Grass transducer coupled to a Model 7D Grass Polygraph for recording isometric force responses. The bath was filled with 20 ml of oxygenated (95% oxygen/5% carbon dioxide) Krebs solution of the following composition (mM): 130 NaCl, […], 15 KCl, 1.2 NaH2PO4, 1.2 MgSO4, 2.5 CaCl2, and 11.4 glucose. The preparations were equilibrated for one hour before approximately one gram of passive tension was placed on the rings. Angiotensin II concentration-response curves were then recorded (3×10^−10 to 1×10^−5 M). Each concentration of AII was allowed to elicit its maximal contraction, and then AII was washed out repeatedly for 30 minutes before rechallenging with a higher concentration of AII. Aorta rings were exposed to the test antagonist at […] for 5 minutes before challenging with AII. Adjacent segments of the same aorta ring were used for all concentration-response curves in the presence or absence of the test antagonist. The effectiveness of the test compound was expressed in terms of pA2 values and were calculated according to H. O. Schild [Br. J. Pharmacol, Chemother., 2,189-206 (1947)]. The pA2 value is the concentration of the antagonist which increases the EC50 value for AII by a factor of two. Each test antagonist was evaluated in aorta rings from two rabbits.

How did the pIC50 [1] turn out when CCCc1nc(CCC)n(Cc2ccc(-c3ccccc3-c3nnn[nH]3)nc2)n1 [Compound 246] was run?
Its pIC50 is 7.14.

And the Kb [2]?
The Kb was 0.0347 µM.

How did the pIC50 [1] turn out when CCCCn1nc(C=O)nc1Cc1ccc(-c2ccccc2-c2nnn[nH]2)nc1 [Compound 179] was run?
Its pIC50 is 6.51.

And the Kb [2]?
Its Kb is 0.214 µM.

CCCCc1ncn(Cc2ccc(-c3ccccc3C(=O)O)cc2)n1 [Compound 19] was tested. Which pIC50 [1] did it give?
Its pIC50 is 4.92.

And the Kb [2]?
Its Kb is 6.61 µM.

Which results are given for CCCn1nc(C(OC)OC)nc1Cc1ccc(-c2ccccc2-c2nnn[nH]2)nc1 [Compound 174]?
pIC50 [1]: 6.74; Kb [2]: 0.0513 µM

How did the pIC50 [1] turn out when CCCCc1cn(-c2c(C(C)C)cccc2C(C)C)c(=O)n1Cc1ccc(-c2ccccc2-c2nnn[nH]2)cc1 [Compound 277] was run?
The pIC50 was 6.72.

And the Kb [2]?
Its Kb is 0.288 µM.

How did the pIC50 [1] turn out when CCCCc1nc(-c2ccccc2C)n(Cc2ccc(-c3ccccc3-c3nnn[nH]3)nc2)n1 [Compound 262] was run?
Its pIC50 is 6.28.

And the Kb [2]?
The Kb was 0.603 µM.

How did the pIC50 [1] turn out when CCCCc1nc(CCCC)n(Cc2ccc(-n3c(Br)ccc3-c3nnn[nH]3)cc2)n1 [Compound 141] was run?
Its pIC50 is 9.96.

What about the Kb [2] of the same compound?
The Kb was 0.00955 µM.

Which results are given for CCCCc1nc(CC2CCCCC2)nn1Cc1ccc(-c2ccccc2-c2nnn[nH]2)cc1 [Compound 74]?
pIC50 [1]: 8.19; Kb [2]: 0.00275 µM

With CCCCn1nc(C(F)(F)CCC)nc1Cc1ccc(-c2ccccc2-c2nnn[nH]2)cc1 [Compound 130] as the compound, how does the pIC50 [1] read?
Its pIC50 is 7.40.

What about the Kb [2] of the same compound?
The Kb was 0.00794 µM.

With CCCCc1nc(CCC(=O)O)nn1Cc1ccc(-c2ccccc2-c2nnn[nH]2)cc1 [Compound 63] as the compound, how does the pIC50 [1] read?
The pIC50 was 7.21.

What about the Kb [2] of the same compound?
The Kb was 0.017 µM.

Which results are given for CCCCc1nn(C(CC(=O)OCC)C(=O)c2ccccc2)c(=O)n1Cc1ccc(-c2ccccc2-c2nn[nH]n2)cc1 (stereo not shown) [Compound 101]?
pIC50 [1]: 7.44; Kb [2]: 0.0158 µM

CCCCc1nc(CN)n(Cc2ccc(-c3ccccc3-c3nnn[nH]3)cc2)n1 [Compound 36] was tested. Which pIC50 [1] did it give?
The pIC50 was 5.85.

And the Kb [2]?
The Kb was 1.2 µM.

How did the pIC50 [1] turn out when CCCCn1nc(C(=O)CCC)nc1Cc1ccc(-c2ccccc2-c2nnn[nH]2)nc1 [Compound 160] was run?
The pIC50 was 7.19.

What about the Kb [2] of the same compound?
Its Kb is 0.0135 µM.

CCCCc1cn(-c2c(C)cc(C(C)(C)C)cc2C)c(=O)n1Cc1ccc(-c2ccccc2-c2nnn[nH]2)cc1 [Compound 279] was tested. Which pIC50 [1] did it give?
The pIC50 was 6.57.

And the “Assay B pA2” value [2]?
The value was 8.06 and 8.25.

With CCCCc1nc(CC2CCCCC2)n(Cc2ccc(-c3ccccc3-c3nnn[nH]3)cc2)n1 [Compound 73] as the compound, how does the pIC50 [1] read?
The pIC50 was 6.10.

What about the Kb [2] of the same compound?
The Kb was 0.0224 µM.

How did the pIC50 [1] turn out when CCCCc1nc(-c2ccccc2)n(Cc2ccc(-c3ccccc3-c3nnn[nH]3)cc2)n1 [Compound 22] was run?
The pIC50 was 6.34.

And the Kb [2]?
Its Kb is 0.251 µM.

Which results are given for CCCCc1nc(C)n(Cc2ccc(-c3ccccc3C(=O)O)cc2)n1 [Compound 77]?
pIC50 [1]: 4.82; Kb [2]: 1.7 µM

CCCCn1nc(CCc2ccccc2)nc1Cc1ccc(-c2ccccc2-c2nnn[nH]2)nc1 [Compound 151] was tested. Which pIC50 [1] did it give?
The pIC50 was 7.77.

What about the Kb [2] of the same compound?
The Kb was 0.0174 µM.

With CCCCc1nc(Cc2ccc(-c3ccccc3-c3nnn[nH]3)cc2)n(CCCC)n1 [Compound 128] as the compound, how does the pIC50 [1] read?
The pIC50 was 7.80.

And the Kb [2]?
The Kb was 0.00234 µM.

CCCCc1nc(C(F)(F)Cc2ccccc2)nn1Cc1ccc(-c2ccccc2-c2nnn[nH]2)cc1 [Compound 51] was tested. Which pIC50 [1] did it give?
The pIC50 was 8.06.

What about the Kb [2] of the same compound?
The Kb was 0.00407 µM.

Which results are given for CCCCc1nc(CCCO)n(Cc2ccc(-c3ccccc3-c3nnn[nH]3)cc2)n1 [Compound 46]?
pIC50 [1]: 6.96; Kb [2]: 0.158 µM

For CCCCc1nc2cnncc2n1Cc1ccc(-c2ccccc2-c2nnn[nH]2)cc1 [Compound 117], which Kb [2] is on record?
Its Kb is 0.316 µM.

How did the pIC50 [1] turn out when CCCCc1nc(C(=O)Cc2ccccc2)nn1Cc1ccc(-c2ccccc2-c2nnn[nH]2)cc1 [Compound 50] was run?
The pIC50 was 7.27.

What about the Kb [2] of the same compound?
Its Kb is 0.0195 µM.

How did the pIC50 [1] turn out when CCCCc1nc(CCC(C)C)nn1Cc1ccc(-c2ccccc2-c2nnn[nH]2)cc1 [Compound 17] was run?
Its pIC50 is 8.40.

What about the Kb [2] of the same compound?
Its Kb is 0.00229 µM.

CCCCn1nc(C(C)(F)F)nc1Cc1ccc(-c2ccccc2-c2nnn[nH]2)nc1 [Compound 166] was tested. Which pIC50 [1] did it give?
Its pIC50 is 6.80.

And the Kb [2]?
Its Kb is 0.0269 µM.

What does the source list for CCCn1nc(C(F)(F)CC)nc1Cc1ccc(-c2ccccc2-c2nnn[nH]2)nc1 [Compound 167]?
pIC50 [1]: 6.43; Kb [2]: 0.0832 µM

Which results are given for CCCn1nc(C(C)(F)F)nc1Cc1ccc(-c2ccccc2-c2nnn[nH]2)nc1 [Compound 165]?
pIC50 [1]: 6.39; Kb [2]: 0.126 µM

With CCCCc1nn(CC(=O)O)c(=O)n1Cc1ccc(-c2ccccc2-c2nn[nH]n2)cc1 [Compound 87] as the compound, how does the pIC50 [1] read?
Its pIC50 is 7.04.

And the Kb [2]?
Its Kb is 0.0158 µM.

Which results are given for CCCCc1nc(C2CCCCC2)n(Cc2ccc(-c3ccccc3-c3nnn[nH]3)cc2)n1 [Compound 65]?
pIC50 [1]: 7.64; Kb [2]: 0.0141 µM

Which results are given for CCCCc1nn(CCCCC(=O)O)c(=O)n1Cc1ccc(-c2ccccc2-c2nn[nH]n2)cc1 [Compound 103]?
pIC50 [1]: 7.92; Kb [2]: 0.01 µM

How did the pIC50 [1] turn out when CCCCc1nc(CCC2CCCCC2)n(Cc2ccc(-c3ccccc3-c3nnn[nH]3)cc2)n1 [Compound 42] was run?
Its pIC50 is 6.43.

And the Kb [2]?
The Kb was 0.275 µM.

With CCCCc1nc(Cc2ccc(-c3ccccc3-c3nnn[nH]3)cc2)nn1CCCC [Compound 129] as the compound, how does the pIC50 [1] read?
Its pIC50 is 5.17.

And the Kb [2]?
Its Kb is 5.01 µM.

How did the pIC50 [1] turn out when CCCCc1nn(C(=O)CCC)c(=O)n1Cc1ccc(-c2ccccc2-c2nn[nH]n2)cc1 [Compound 95] was run?
Its pIC50 is 7.18.

What about the Kb [2] of the same compound?
Its Kb is 0.00631 µM.

With CCCCc1nn(CC2CC2)c(=O)n1Cc1ccc(-c2ccccc2-c2nn[nH]n2)cc1 [Compound 104] as the compound, how does the pIC50 [1] read?
Its pIC50 is 7.82.

And the Kb [2]?
Its Kb is 0.01 µM.

With CCCCc1nc(Cc2ccc(-c3ccccc3C(=O)O)cc2)n(CCCC)n1 [Compound 126] as the compound, how does the pIC50 [1] read?
Its pIC50 is 6.62.

What about the Kb [2] of the same compound?
Its Kb is 0.0631 µM.

Which results are given for CCCCc1nc(CC(OCC)OCC)n(Cc2ccc(-c3ccccc3-c3nnn[nH]3)cc2)n1 [Compound 37]?
pIC50 [1]: 6.47; Kb [2]: 0.126 µM

What does the source list for CCCCn1nc(C(F)(F)CC)nc1Cc1ccc(-c2ccccc2-c2nnn[nH]2)nc1 [Compound 168]?
pIC50 [1]: 6.38; Kb [2]: 0.0204 µM

How did the pIC50 [1] turn out when CCCCc1ncn(Cc2ccc(-c3ccccc3-c3nnn[nH]3)cc2)n1 [Compound 54] was run?
The pIC50 was 5.51.

And the Kb [2]?
The Kb was 0.955 µM.

How did the pIC50 [1] turn out when CCCCc1nc(CCC)nn1Cc1ccc(-c2ccccc2-c2nnn[nH]2)cc1 [Compound 14] was run?
The pIC50 was 8.14.

What about the Kb [2] of the same compound?
Its Kb is 0.00145 µM.

With CCCCc1nn(CC(OCc2ccccc2)c2ccccc2)c(=O)n1Cc1ccc(-c2ccccc2-c2nn[nH]n2)cc1 (stereo not shown) [Compound 97] as the compound, how does the pIC50 [1] read?
Its pIC50 is 6.55.

And the Kb [2]?
Its Kb is 0.02 µM.

How did the pIC50 [1] turn out when CCCCc1nc(C(OC)OC)nn1Cc1ccc(-c2ccccc2-c2nnn[nH]2)cc1 [Compound 24] was run?
Its pIC50 is 8.00.

And the Kb [2]?
Its Kb is 0.0275 µM.

CCCCc1nc(CCC(C)C)n(Cc2ccc(-c3ccccc3-c3nnn[nH]3)cc2)n1 [Compound 16] was tested. Which pIC50 [1] did it give?
Its pIC50 is 8.19.

What about the Kb [2] of the same compound?
The Kb was 0.00112 µM.

How did the Kb [2] turn out when CCCCCc1nc(CCCCC)n(Cc2ccc(-c3ccccc3-c3nnn[nH]3)cc2)n1 [Compound 13] was run?
Its Kb is 0.002 µM.

Which results are given for CCCCc1nc2c(Cl)nnc(Cl)c2n1Cc1ccc(-c2ccccc2-c2nnn[nH]2)cc1 [Compound 110]?
pIC50 [1]: 6.23; Kb [2]: 0.398 µM

CCCCc1nc(CCc2ccccc2)n(Cc2ccc(-c3ccccc3-c3nnn[nH]3)cc2)n1 [Compound 25] was tested. Which pIC50 [1] did it give?
Its pIC50 is 6.32.

What about the Kb [2] of the same compound?
The Kb was 0.158 µM.

CCCCc1nn(CC(O)c2cc(OC)ccc2OC)c(=O)n1Cc1ccc(-c2ccccc2-c2nn[nH]n2)cc1 (stereo not shown) [Compound 98] was tested. Which pIC50 [1] did it give?
The pIC50 was 7.66.

And the Kb [2]?
Its Kb is 0.00794 µM.

CCCCc1nc(C(=O)O)nn1Cc1ccc(-c2ccccc2-c2nnn[nH]2)cc1 [Compound 52] was tested. Which pIC50 [1] did it give?
The pIC50 was 7.00.

And the Kb [2]?
The Kb was 0.00724 µM.

Which Kb [2] does the source give for CCCCc1nc2c(O)nnc(CCC)c2n1Cc1ccc(-c2ccccc2-c2nn[nH]n2)cc1 [Compound 114] here?
The Kb was 0.398 µM.

With CCCCc1nc2c(O)nncc2n1Cc1ccc(-c2ccccc2-c2nnn[nH]2)cc1 [Compound 116] as the compound, how does the Kb [2] read?
The Kb was 0.316 µM.
